Source: US8622991B2, “Method and device for drug delivery” (Insuline Medical Ltd., priority 2007, dated 2014)

Tests used:
[1] = temperature to which the insulin can be exposed (insulin infused tissue region); cited from earlier work
[2] = euglycemic glucose clamp study (Glucose Infusion Rate) after insulin pump bolus, with and without heating device; format: in vivo, human; details: FIG. 26a; for time to peak action (GIR): insulin bolus 0.15 U/kg by pump
From the text: The infusion set includes a tube 44 and a catheter 47, which is inserted into the subcutaneous tissue. […] The controller unit has a switch/button 48 for manual operation and two indicators 49 for “treatment is on” and for battery status. The two components are connected by wires 43.
The controller monitors the electromagnetic emission from the pump. During a bolus mode, the pump emits a well defined series of electromagnetic pulses at constant rate, shown as arrows 42. […] The temperature of the heater is controlled by the controller using a temperature sensor 45 located on the heating element.
The flat heating element used in this example has several layers. The upper layer is a polyethylene layer which seals the element. Below that layer, there is an etched circuit, below which there is a copper layer for heat distribution and mechanical support. Below that layer, there is another sealing polyethylene layer, below which there is an adhesive tape from 3M® which is bio-compatible. The heater has a thickness of less than 0.2 mm and his diameter is 3 cm. Thin electric wires of length of 60 cm with small connectors at both ends connected the heater to the controller unit. The power used for the heating can be 2 Watts. The heating was turned on and off by the controller to stabilize the skin temperature at 39° C. The heat duration was set to 30 minutes, after which the temperature regulation was stopped.
The subject lied down in supine position.
The above described procedure was performed in the same subjects under the same conditions with and without using the heating device. The two graphs show the GIR in glucose milligrams per minutes per subject's kg vs. time. […] There are many attempts to compose such an “artificial pancreas” since the development of continuous glucose monitors. […] Thus, another use of the methods and devices by the present invention is to combine them with a glucose sensor, insulin delivery device and a control algorithm to provide a better accuracy and robustness of a closed loop glucose level control system.

Substance | maximal limiting temperature [1] [°C] | time to peak action (GIR) ([2]; with heating (skin 39° C., 30 minutes), same subject) [min] | GIR decrease (indication for insulin clearance out of the circulation and cessation of systemic effects) ([2]; with heating compared to without heating, same subject) | time to peak action (GIR) ([2]; without heating, typical result in one diabetic subject) [min]
Insulin aspart [Novolog] | 37 | – | – | –
insulin | – | 50 | much faster | 75
